US20230146455A1, “TREATMENT OF INFLAMMATORY DISEASES WITH PEPTIDES AND PHARMACEUTICAL COMPOSITIONS” (Yuyu Pharma, Inc., priority 2020, published 2023)
Where “and” joins values, the source holds several entries; their conditions need not be identical. Identical values can stand only once. Where a SMILES comes first, the peptide text is derived from it. [ ]: non-standard residue; d: D form. Hyp = O=C(O)[C@@H]1C[C@@H](O)CN1

Key:
[1] = tested on: CCL3/MIP-1 alpha; assay: Example 8 main study Luminex, LPS hPBMCs: CCL3/MIP-1 alpha; type: cell-based, human; conditions: for CCL3/MIP-1 alpha MFI / CCL3/MIP-1 alpha Concentration: no LPS
Procedure: (§1) Human PBMCs were pretreated with YY-101, YDE-011, YDE-043 or reference compound; Xiidra® at various concentration (ranging from […] to 500 nM) for 2 h before stimulation. An equal volume of 0.5% DMSO was used as a vehicle control. Then, the cells were treated with LPS at 5 ug/ml, which was selected based on the pilot study. The supernatants from treated cells were harvested at 24 h and placed in a 96 well for Luminex cytokine & chemokine profiling using a Luminex 200 multiplex assay (Luminex; R&D system, USA).
(§2) The main study arm with triplicate wells per group in a 24-well plate: • 1. Blank • 2. PBMC: 0.5% DMSO • 3. PBMC+LPS (5 ug/ml) • 4. PBMC+YY-101 500 nM • 5. PBMC+YY-101 50 nM • 6. PBMC+YY-101 5 nM • 7. PBMC+YY-101 0.5 nM • 8. PBMC+LPS (5 ug/ml)+Xiidra® 500 nM • 9. PBMC+LPS (5 ug/ml)+Xiidra® 50 nM • 10. PBMC+LPS (5 ug/ml)+Xiidra® 5 nM • 11. PBMC+LPS (5 ug/ml)+Xiidra® 0.5 nM • 12. PBMC+LPS (5 ug/ml)+Xiidra® 0.05 nM • 13. PBMC+LPS (5 ug/ml)+Xiidra® 0.005 nM • 14. PBMC+LPS (5 ug/ml)+YY-101 500 nM • 15. PBMC+LPS (5 ug/ml)+YY-101 50 nM • 16. PBMC+LPS (5 ug/ml)+YY-101 5 nM • 17. PBMC+LPS (5 ug/ml)+YY-101 0.5 nM • 18. PBMC+LPS (5 ug/ml)+YY-101 0.05 nM • 19. PBMC+LPS (5 ug/ml)+YY-101 0.005 nM • 20. PBMC+LPS (5 ug/ml)+YDE-011 500 nM • 21. PBMC+LPS (5 ug/ml)+YDE-011 50 nM • 22. PBMC+LPS (5 ug/ml)+YDE-011 5 nM • 23. PBMC+LPS (5 ug/ml)+YDE-011 0.5 nM • 24. PBMC+LPS (5 ug/ml)+YDE-011 0.05 nM • 25. PBMC+LPS (5 ug/ml)+YDE-011 0.005 nM • 26. PBMC+LPS (5 ug/ml)+YDE-043 500 nM • 27. PBMC+LPS (5 ug/ml)+YDE-043 50 nM • 28. PBMC+LPS (5 ug/ml)+YDE-043 5 nM • 29. PBMC+LPS (5 ug/ml)+YDE-043 0.5 nM • 30. PBMC+LPS (5 ug/ml)+YDE-043 0.05 nM • 31. PBMC+LPS (5 ug/ml)+YDE-043 0.005 nM
(§3) Multiplex assay was used to measure 30 cytokines and chemokines. The 1:200 diluted cell supernatant and serial dilution of the standard were dispensed into a 96 well plate at 50 ul/well. Then, the pre-mixed cocktail of antibody-coated magnetic beads was dispensed at 50 ul/well and incubated at room temperature for 2 h in a horizontal orbital microplate shaker at 800±500 rpm. The beads were washed using a magnetic device to prevent loss. The biotin-antibody was dispensed in 50 ul of each well and incubated at room temperature for 1 h in a shaker at 800±500 rpm. After washing, streptavidin-PE was added at 50 ul/well and incubated at room temperature for 30 min in a shaker under the same conditions. Finally, after washing, wash buffer (100 ul/well) was added to the plate and incubated in a shaker for 2 min. The Luminex™ 200 setting were set according to the manufacturer's protocol. The data was calculated with a standard five-parameter logistic nonlinear regression analysis of the data (xPonent software 4.2, USA). Results were presented as concentration (ng/ml or pg/ml).

[2] = tested on: TIMP-1; assay: Example 8 main study Luminex, LPS hPBMCs: TIMP-1; type: cell-based, human
Procedure: as §1, §2, §3

[3] = PBMC + test article 0.05 uM, single replicates
[4] = PBMC + test article 50 nM, Mean
[5] = PBMC + test article 50 nM, single replicates
[6] = PBMC + test article 500 nM, Mean
[7] = PBMC + test article 500 nM, single replicates
[8] = PBMC + LPS(5 ug/ml), test article 0.005 nM
[9] = PBMC + LPS(5 ug/ml), test article 0.05 nM
[10] = PBMC + LPS(5 ug/ml), test article 0.5 nM
[11] = PBMC + LPS(5 ug/ml), test article 5 nM
[12] = PBMC + LPS(5 ug/ml), test article 50 nM
[13] = PBMC + LPS(5 ug/ml), test article 500 nM
[14] = PBMC without LPS, test article 0.5 nM
[15] = PBMC without LPS, test article 5 nM
[16] = PBMC without LPS, test article 0.05 uM
[17] = PBMC without LPS, test article 50 nM
[18] = PBMC without LPS, test article 500 nM

## CC(C)C[C@H](NC(=O)CNC(=O)[C@H](CC(=O)O)NC(=O)[C@H](CCC(N)=O)NC(=O)CNC(=O)[C@@H]1C[C@@H](O)CN1)C(=O)N[C@@H](C)C(=O)NCC(=O)N1CCC[C@H]1C(=O)N[C@@H](CCCCN)C(=O)O [YY-101] (H-[Hyp]GQDGLAGPK-OH; N-terminus and C-terminus assumed)
[1]; PBMC + test article 0.05 uM, Mean
  CCL3/MIP-1 alpha MFI: 17.0
[1]; [3]
  CCL3/MIP-1 alpha Concentration: 15903.7 pg/mL and 11904.9 pg/mL
  CCL3/MIP-1 alpha MFI: 19.0 and 15.0
[1]; [4]
  CCL3/MIP-1 alpha Concentration: 14246.1 pg/mL
  CCL3/MIP-1 alpha MFI: 17.3
[1]; [5]
  CCL3/MIP-1 alpha Concentration: 13510.6 pg/mL and 14981.7 pg/mL
  CCL3/MIP-1 alpha MFI: 16.5 and 18.0
[1]; [6]
  CCL3/MIP-1 alpha Concentration: 14014.0 pg/mL
  CCL3/MIP-1 alpha MFI: 17.0
[1]; [7]
  CCL3/MIP-1 alpha Concentration: 14014.0 pg/mL
  CCL3/MIP-1 alpha MFI: 17.0
[1]; at as low as 5 μM, LPS 5 ug/mL 24 hrs
  LPS-induced CCL-3 (in words): significantly reduced
[2]; [8]
  TIMP-1 Concentration (pg/ml), Mean: 3912.8 pg/mL
  TIMP-1 Concentration (pg/ml), single replicates: 4259.2 pg/ml (2×) and 3220.1 pg/ml
[2]; [9]
  TIMP-1 Concentration (pg/ml), Mean: 3820.5 pg/mL
  TIMP-1 Concentration (pg/ml), single replicates: 3935.4 pg/ml (2×) and 3590.9 pg/ml
[2]; [10]
  TIMP-1 Concentration (pg/ml), Mean: 4128.5 pg/mL
  TIMP-1 Concentration (pg/ml), single replicates: 3935.4 pg/mL and 3590.9 pg/mL and 4859.3 pg/mL
[2]; [11]
  TIMP-1 Concentration (pg/ml), Mean: 3696.9 pg/mL
  TIMP-1 Concentration (pg/ml), single replicates: 3935.4 pg/ml (2×) and 3220.1 pg/ml
[2]; [12]
  TIMP-1 Concentration (pg/ml), Mean: 3696.9 pg/mL
  TIMP-1 Concentration (pg/ml), single replicates: 3935.4 pg/ml (2×) and 3220.1 pg/ml
[2]; [13]
  TIMP-1 Concentration (pg/ml), Mean: 3696.9 pg/mL
  TIMP-1 Concentration (pg/ml), single replicates: 3935.4 pg/ml (2×) and 3220.1 pg/ml
[2]; [14]
  TIMP-1 Concentration (pg/ml), Mean: 6580.9 pg/mL
  TIMP-1 Concentration (pg/ml), single replicates: 6173.1 pg/mL and 6988.8 pg/mL
[2]; [15]
  TIMP-1 Concentration (pg/ml), Mean: 6228.8 pg/mL
  TIMP-1 Concentration (pg/ml), single replicates: 6531.0 pg/mL and 5926.6 pg/mL
[2]; [16]
  TIMP-1 Concentration (pg/ml), Mean: 8751.3 pg/mL
  TIMP-1 Concentration (pg/ml), single replicates: 10402.5 pg/mL and 7100.2 pg/mL
[2]; [17]
  TIMP-1 Concentration (pg/ml), Mean: 6928.9 pg/mL
  TIMP-1 Concentration (pg/ml), single replicates: 7210.4 pg/mL and 6647.4 pg/mL
[2]; [18]
  TIMP-1 Concentration (pg/ml), Mean: 7209.9 pg/mL
  TIMP-1 Concentration (pg/ml), single replicates: 7100.2 pg/mL and 7319.6 pg/mL
